Measurements as given in patent US20120095036A1, “NOVEL SUBSTITUTED INDAZOLE AND AZA-INDAZOLE DERIVATIVES AS GAMMA SECRETASE MODULATORS” (priority 2009, published 2012).

Legend:
Type in all cases: cell-based
Aβ42 [1] = experiment: Method 2: Aβ42 Alphalisa on supernatant of SKNBE2 cells carrying APP 695 wild type; details: SKNBE2 cells APP 695 wild type, overnight
Method: (§1) Screening was carried out using SKNBE2 cells carrying the APP 695—wild type, grown in Dulbecco's Modified Eagle's Medium/Nutrient mixture F-12 (DMEM/NUT-mix F-12) (HAM) provided by Invitrogen (cat no. 10371-029) containing 5% Serum/Fe supplemented with 1% non-essential amino acids, 1-glutamine 2 mM, Hepes 15 mM, penicillin 50 U/ml (units/ml) en streptomycin 50 μg/ml. Cells were grown to near confluency.
(§2) The screening was performed using a modification of the assay as described in Citron et al (1997) Nature Medicine 3: 67. Briefly, cells were plated in a 384-well plate at 10^4 cells/well in Ultraculture (Lonza, BE12-725F) supplemented with 1% glutamine (Invitrogen, 25030-024), 1% non-essential amino acid (NEAA), penicillin 50 U/ml en streptomycin 50 μg/ml in the presence of test compound at different test concentrations. The cell/compound mixture was incubated overnight at 37° C., 5% CO2, The next day the media were assayed by two sandwich immuno-assays, for Aβ42 and Aβtotal.
(§3) Aβtotal and Aβ42 concentrations were quantified in the cell supernatant using the Aphalisa technology (Perkin Elmer). Alphalisa is a sandwich assay using biotinylated antibody attached to streptavidin coated donorbeads and antibody conjugated to acceptor beads. In the presence of antigen, the beads come into close proximity. The excitation of the donor beads provokes the release of singlet oxygen molecules that trigger a cascade of energy transfer in the acceptor beads, resulting in light emission. To quantify the amount of Aβ42 in the cell supernatant, monoclonal antibody specific to the C-terminus of Aβ42 (JRF/cAβ42/26) was coupled to the receptor beads and biotinylated antibody specific to the N-terminus of AB (JRF/AβN/25) was used to react with the donor beads. To quantify the amount of Aβtotal in the cell supernatant, monoclonal antibody specific to the N-terminus of AB (JRF/AβN/25) was coupled to the receptor beads and biotinylated antibody specific to the mid region of Aβ (biotinylated 4G8) was used to react with the donor beads.
(§4) To obtain the values reported in Table 3b, the data were calculated as percentage of the maximum amount of amyloid Beta 42 measured in the absence of the test compound. The sigmoidal dose response curves were analyzed using non-linear regression analysis with percentage of the control plotted against the log concentration of the compound. A 4-parameter equation was used to determine the IC50.

Aβ42 [2] = experiment: Method 1: Aβ42 sandwich ELISA on media of SKNBE2 cells carrying APP 695 wild type (γ-secretase-modulating activity); details: SKNBE2 cells APP 695 wild type, 18 hours
Method: as §1, with “Gibco” for “Invitrogen”, “31330-38)” for “10371-029)”, “acids.” for “acids, 1-glutamine 2 mM, Hepes 15 mM, penicillin 50 U/ml (units/ml) en streptomycin 50 μg/ml.”
(§5) The screening was performed using the assay as described in Citron et al (1997) Nature Medicine 3: 67. Briefly, cells were plated in a 96-well plate at about 10^5 cells/ml one day prior to addition of compounds. Compounds were added to the cells in Ultraculture (Lonza, BE12-725F) supplemented with 1% glutamine (Invitrogen, 25030-024) for 18 hours. The media were assayed by two sandwich ELISAs, for Aβ42 and Aβtotal. Toxicity of the compounds was assayed by WST-1 cell proliferation reagent (Roche, 1 644 807) according to the manufacturer's protocol.
To quantify the amount of Aβ42 in the cell supernatant, commercially available Enzyme-Linked-Immunosorbent-Assay (ELISA) kits were used (Innotest® β-Amyloid(1-42), Innogenetics N.V., Ghent, Belgium). The Aβ42 ELISA was performed essentially according to the manufacturer's protocol. Briefly, the standards (dilutions of synthetic A131-42) were prepared in polypropylene Eppendorf with final concentrations of 8000 down to […] (½ dilution step). Samples, standards and blanks (100 μl) were added to the anti-Aβ42-coated plate supplied with the kit (the capture antibody selectively recognizes the C-terminal end of the antigen). The plate was allowed to incubate 3 h at 25° C. in order to allow formation of the antibody-amyloid complex. Following this incubation and subsequent wash steps a selective anti-A13-antibody conjugate (biotinylated 3D6) was added and incubated for a minimum of 1 hour in order to allow formation of the antibody-Amyloid-antibody-complex. After incubation and appropriate wash steps, a Streptavidine-Peroxidase-Conjugate was added, followed 30 minutes later by an addition of 3,3′,5,5′-tetramethylbenzidine (TMB)/peroxide mixture, resulting in the conversion of the substrate into a coloured product. This reaction was stopped by the addition of sulfuric acid (0.9 N) and the colour intensity was measured by means of photometry with an ELISA-reader with a 450 nm filter.
(§6) To obtain the values reported in Table 3a, the sigmoidal dose response curves were analysed by computerised curve-fitting, with percent of inhibition plotted against compound concentration. A 4-parameter equation (model 205) in XLfit was used to determine the IC50. The top and the bottom of the curve were fixed to 100 and 0, respectively, and the hill slope was fixed to 1. The IC50 represents the concentration of a compound that is required for inhibiting a biological effect by 50% (Here, it is the concentration where Aβ peptide level is reduced by 50%).

Aβtotal [3] = experiment: Method 1: Aβtotal sandwich ELISA on media of SKNBE2 cells carrying APP 695 wild type; details: SKNBE2 cells APP 695 wild type, 18 hours
Method: as §1, with “Gibco” for “Invitrogen”, “31330-38)” for “10371-029)”, “acids.” for “acids, 1-glutamine 2 mM, Hepes 15 mM, penicillin 50 U/ml (units/ml) en streptomycin 50 μg/ml.”
as §5
To quantify the amount of Aβtotal in the cell supernatant, samples and standards were added to a 6E10-coated plate. The plate was allowed to incubate overnight at 4° C. in order to allow formation of the antibody-amyloid complex. Following this incubation and subsequent wash steps a selective anti-AB-antibody conjugate (biotinylated 4G8) was added and incubated for a minimum of 1 hour in order to allow formation of the antibody-Amyloid-antibody-complex. After incubation and appropriate wash steps, a Streptavidine-Peroxidase-Conjugate was added, followed 30 minutes later by an addition of Quanta Blu fluorogenic peroxidase substrate according to the manufacturer's instructions (Pierce Corp., Rockford, Il).
as §6

Aβtotal [4] = experiment: Method 2: Aβtotal Alphalisa on supernatant of SKNBE2 cells carrying APP 695 wild type; details: SKNBE2 cells APP 695 wild type, overnight
Method: as §1, §2, §3, §4

SMILES	IC50 (Aβ42 [1]) [nM]	IC50 (Aβ42 [2]; Homo sapiens) [nM]	IC50 (Aβ42 [1]; Homo sapiens) [nM]	IC50 (Aβtotal [4]; Homo sapiens) [nM]	other results
COCCn1cc2cccc(Nc3ccc(-c4cnc(C)o4)cc3)c2n1 [Compound 27, 2-(2-methoxyethyl)-N-[4-(2-methyl-5-oxazolyl)phenyl]-2H-indazol-7-amine .1.5HCl .1.25H2O]	> 3000				
COCCn1cc2cccc(Nc3ccc(-c4ocnc4C)c(OC)c3)c2n1 [Compound 36, 2-(2-methoxyethyl)-N-[3-methoxy-4-(4-methyl-5-oxazolyl)phenyl]-2H-indazol-7-amine .1.5HCl .0.18H2O]	> 3000				
COc1cc(Nc2cccc3cn(CC4CC4)nc23)ccc1-c1ocnc1C [Compound 37, 2-(cyclopropylmethyl)-N-[3-methoxy-4-(4-methyl-5-oxazolyl)phenyl]-2H-indazol-7-amine .2HCl]	> 3000				IC50 (Aβ42 [2]): 2660 nM; IC50 (Aβtotal [3]): > 3000 nM; IC50 (Aβtotal [4]): > 3000 nM
CCCCn1cc2cccc(Nc3ccc(-n4cnc(C)c4)c(OC)c3)c2n1 [Compound 3, 2-butyl-N-[3-methoxy-4-(4-methyl-1H-imidazol-1-yl)phenyl]-2H-indazol-7-amine .2HCl]		113	< 3000	> 3000	IC50 (Aβtotal [3]; Homo sapiens): > 3000 nM
Cc1cn(-c2ccc(Nc3cncc4cn(CC(F)(F)F)nc34)cc2F)cn1 [Compound 55, N-[3-fluoro-4-(4-methyl-1H-imidazol-1-yl)phenyl]-2-(2,2,2-trifluoroethyl)-2H-pyrazolo[4,3-c]pyridin-7-amine]			603	> 10000	
CCCCn1cc2cc(CN)cc(Nc3ccc(-n4cnc(C)c4)c(OC)c3)c2n1 [Compound 12, 2-butyl-7-[[3-methoxy-4-(4-methyl-1H-imidazol-1-yl)phenyl]amino]-2H-indazole-5-methanamine .4HCl]	> 3000				
COc1cc(Nc2cc(C(C)C)nc3cn(CC(F)(F)F)nc23)ccc1-n1cnc(C)n1 [Compound 56, N-[3-methoxy-4-(3-methyl-1H-1,2,4-triazol-1-yl)phenyl]-5-(1-methylethyl)-2-(2,2,2-trifluoroethyl)-2H-pyrazolo[4,3-b]pyridin-7-amine]			708	> 10000	
COc1cc(Nc2cccc3cn(CC4CC4)nc23)ccc1-n1cnc(C)c1 [Compound 13, 2-(cyclopropylmethyl)-N-[3-methoxy-4-(4-methyl-1H-imidazol-1-yl)phenyl]-2H-indazol-7-amine .2HCl]	79				IC50 (Aβ42 [2]): 283 nM; IC50 (Aβtotal [3]): > 3000 nM; IC50 (Aβtotal [4]): > 10000 nM
COc1cc(Nc2cccc3c(C)n(-c4ccc(F)cc4F)nc23)ccc1-n1cnc(C)c1 [Compound 16, 2-(2,4-difluorophenyl)-N-[3-methoxy-4-(4-methyl-1H-imidazol-1-yl)phenyl]-3-methyl-2H-indazol-7-amine]		190	54	8510	IC50 (Aβtotal [3]; Homo sapiens): > 3000 nM
COc1cccc(-n2cc3cccc(Nc4ccc(-n5cnc(C)n5)c(OC)c4)c3n2)c1 [Compound 19, N-[3-methoxy-4-(3-methyl-1H-1,2,4-triazol-1-yl)phenyl]-2-(3-methoxyphenyl)-2H-indazol-7-amine]		126	123	3020	IC50 (Aβtotal [3]; Homo sapiens): > 3000 nM
COc1cccc(-n2nc3c(Nc4ccc(-n5cnc(C)n5)c(OC)c4)cccc3c2C)c1 [Compound 5, N-[3-methoxy-4-(3-methyl-1H-1,2,4-triazol-1-yl)phenyl]-2-(3-methoxyphenyl)-3-methyl-2H-indazol-7-amine .1.9HCl]		31	18	8130	IC50 (Aβtotal [3]; Homo sapiens): > 3000 nM
CCCCn1nc2c(Nc3ccc(-n4cnc(C)c4)c(OC)c3)cccc2c1C [Compound 10, 2-butyl-N-[3-methoxy-4-(4-methyl-1H-imidazol-1-yl)phenyl]-3-methyl-2H-indazol-7-amine .2HCl]	< 3000				IC50 (Aβ42 [2]): 99 nM; IC50 (Aβtotal [3]): > 3000 nM; IC50 (Aβtotal [4]): > 3000 nM
COc1cc(Nc2cccc3cn(C)nc23)ccc1-c1cnc(C)s1 [Compound 49, N-[3-methoxy-4-(2-methyl-5-thiazolyl)phenyl]-2-methyl-2H-indazol-7-amine]			> 3000	> 3000	
Cc1ncc(-c2ccc(Nc3cccc4cn(CC5CC5)nc34)cn2)o1 [Compound 43, 2-(cyclopropylmethyl)-N-[6-(2-methyl-5-oxazolyl)-3-pyridinyl]-2H-indazol-7-amine .2HCl]	1410				
COc1cc(Nc2cccc3cn(C)nc23)ccc1-n1cnc(C)n1 [Compound 17, N-[3-methoxy-4-(3-methyl-1H-1,2,4-triazol-1-yl)phenyl]-2-methyl-2H-indazol-7-amine]			> 3000	> 3000	
CCOc1cc(C)c(-n2nc3c(Nc4ccc(-n5cnc(C)c5)c(OC)c4)cccc3c2C)cc1C(C)C [Compound 14, 2-[4-ethoxy-2-methyl-5-(1-methylethyl)phenyl]-N-[3-methoxy-4-(4-methyl-1H-imidazol-1-yl)phenyl]-3-methyl-2H-indazol-7-amine]		29	20	7080	
Cc1ncc(-c2ccc(Nc3cccc4cn(C5CCC5)nc34)cc2)o1 [Compound 26, 2-cyclobutyl-N-[4-(2-methyl-5-oxazolyl)phenyl]-2H-indazol-7-amine .1.2HCl]	> 3000				IC50 (Aβtotal [4]): > 3000 nM
Cc1ncc(-c2ccc(Nc3cc(F)cc4c(C)n(-c5ccc(F)cc5)nc34)cn2)o1 [Compound 47, 5-fluoro-2-(4-fluorophenyl)-3-methyl-N-[6-(2-methyl-5-oxazolyl)-3-pyridinyl]-2H-indazol-7-amine]			35	6920	
COc1cc(Nc2cccc3c(C)n(-c4ccc(F)cc4F)nc23)ccc1-c1cnc(C)s1 [Compound 50, 2-(2,4-difluorophenyl)-N-[3-methoxy-4-(2-methyl-5-thiazolyl)phenyl]-3-methyl-2H-indazol-7-amine]		865	676	> 10000	
COc1cccc(-n2nc3c(Nc4ccc(-c5ccnn5C)cc4)cccc3c2C)c1 [Compound 53, 2-(3-methoxyphenyl)-3-methyl-N-[4-(1-methyl-1H-pyrazol-5-yl)phenyl]-2H-indazol-7-amine .2HCl .0.5H2O]	631				IC50 (Aβtotal [4]): > 10000 nM
